This note sets out measurements from PubChem BioAssay (NCI).

Among the test systems are SK-MEL-2 melanoma; HCT-116 colon; NCI-H23 lung; SK-MEL-28 melanoma; SR leukemia; SK-MEL-5 melanoma; PC-3 prostate; MALME-3M melanoma; SF-539 CNS; HS 578T breast.
Common to all, as to test: NCI tumour cell line growth inhibition, 48 h

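Tested at 5 concentrations; 48 h exposure; 96-well plates; endpoints linearly interpolated, else capped at highest concentration. GI50: concentration for 50% inhibition of growth. At the TGI there is no net growth.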

As for `COC(=O)C1OC(SCCN)C(O)C(O)C1O` (stereo not given), the TGI with SK-MEL-2 melanoma, in the experiment with HCT-116 colon, in the experiment on NCI-H23 lung, with SK-MEL-28 melanoma, in the experiment with SR leukemia and in the experiment on SK-MEL-5 melanoma was over 100 µM each time. In addition, the TGI with PC-3 prostate, in the experiment on MALME-3M melanoma, in the experiment with SF-539 CNS and with HS 578T breast was over 100 µM throughout.

`NCCNc1nc2ccc(F)cc2c2c(=O)c3cc(F)ccc3sc12`: the GI50 in the experiment on SK-MEL-2 melanoma is 1.95 µM; in the experiment on HCT-116 colon, 1.61 µM; in the experiment with NCI-H23 lung, 1.65 µM; in the experiment with SK-MEL-28 melanoma, 2.05 µM; in the experiment with SR leukemia it was 1.98 µM; in the experiment with SK-MEL-5 melanoma, 1.68 µM. Further, the GI50 in the experiment with PC-3 prostate was 1.48 µM; in the experiment with MALME-3M melanoma it was 1.91 µM; in the experiment with SF-539 CNS, 1.76 µM; with HS 578T breast it was 3.21 µM. Moreover, the TGI was 4.28 µM with SK-MEL-2 melanoma; 2.96 µM with HCT-116 colon; 3.18 µM in the experiment with NCI-H23 lung; 4.18 µM in the experiment on SK-MEL-28 melanoma; 4.91 µM in the experiment with SR leukemia; 3.25 µM in the experiment on SK-MEL-5 melanoma. The TGI with PC-3 prostate is 2.85 µM; in the experiment on MALME-3M melanoma it was 4.28 µM; in the experiment on SF-539 CNS, 3.25 µM; in the experiment on HS 578T breast, 18.4 µM.

With `Fc1cccc(-c2nc(-c3c[nH]c4ncccc34)cs2)c1`, the GI50 was over 100 µM in the experiment on SK-MEL-2 melanoma; 7.9 µM in the experiment with HCT-116 colon; 71.1 µM in the experiment on NCI-H23 lung; over 100 µM with SK-MEL-28 melanoma; over 100 µM in the experiment on SR leukemia; over 100 µM in the experiment on SK-MEL-5 melanoma. For the same compound, the GI50 is over 100 µM with PC-3 prostate, 5.62 µM with MALME-3M melanoma, 70 µM in the experiment on SF-539 CNS and 2.95 µM in the experiment on HS 578T breast. In addition, the TGI in the experiment with SK-MEL-2 melanoma, in the experiment on HCT-116 colon, in the experiment with NCI-H23 lung, with SK-MEL-28 melanoma, in the experiment with SR leukemia and with SK-MEL-5 melanoma was over 100 µM throughout. The TGI was over 100 µM in the experiment with PC-3 prostate, over 100 µM in the experiment with MALME-3M melanoma, over 100 µM in the experiment with SF-539 CNS and 16.7 µM with HS 578T breast.

As to `CN1CCN(c2ccc(NC(=O)c3cncnc3Nc3ccc4c(ccn4Cc4cccc(F)c4)c3)cc2)CC1`, the GI50 is 5.2 µM with SK-MEL-2 melanoma; 1 µM in the experiment with HCT-116 colon; 4.35 µM with NCI-H23 lung; 0.533 µM in the experiment with SK-MEL-28 melanoma; 0.655 µM in the experiment with SR leukemia; 1.56 µM in the experiment on SK-MEL-5 melanoma. The GI50 is 2.06 µM in the experiment with PC-3 prostate, 0.524 µM in the experiment with MALME-3M melanoma, 1.35 µM in the experiment with SF-539 CNS and 3.63 µM with HS 578T breast. For the same compound, the TGI in the experiment with SK-MEL-2 melanoma turned out to be 10.7 µM; with HCT-116 colon, 3.55 µM; in the experiment with NCI-H23 lung, 9.14 µM; in the experiment on SK-MEL-28 melanoma it was 1.01 µM; with SR leukemia it was 1.96 µM; in the experiment with SK-MEL-5 melanoma, 5.91 µM. Besides, the TGI with PC-3 prostate came out at 6.74 µM; with MALME-3M melanoma it was 0.976 µM; with SF-539 CNS, 5.54 µM; in the experiment on HS 578T breast, 11.8 µM.

Regarding `COc1ccc(C(=O)c2cc(C)c(OC)c(C)c2)c(OC)c1OC(=O)C(Cl)Cl`, the GI50 with SK-MEL-2 melanoma is 0.132 µM; in the experiment with HCT-116 colon, 0.0976 µM; in the experiment on NCI-H23 lung, 0.0681 µM; with SK-MEL-28 melanoma it was 0.0632 µM; in the experiment with SR leukemia it was 0.0181 µM; in the experiment on SK-MEL-5 melanoma, 0.0521 µM. Besides, the GI50 was 0.0436 µM with PC-3 prostate, 0.0714 µM with MALME-3M melanoma, 0.0238 µM in the experiment on SF-539 CNS and 0.0294 µM with HS 578T breast. For the same compound, the TGI in the experiment on SK-MEL-2 melanoma was over 100 µM; in the experiment with HCT-116 colon it was over 100 µM; with NCI-H23 lung, over 100 µM; with SK-MEL-28 melanoma, over 100 µM; with SR leukemia, over 100 µM; in the experiment with SK-MEL-5 melanoma, 0.326 µM. The TGI with PC-3 prostate is over 100 µM; in the experiment on MALME-3M melanoma, over 100 µM; with SF-539 CNS it was 0.0702 µM; in the experiment on HS 578T breast, 73.4 µM.

Turning to `CC(=O)OCCC/C(=C/c1cc2ccccc2c2ccccc12)[N+](=O)[O-]`, the GI50 in the experiment with SK-MEL-2 melanoma was 1.54 µM; in the experiment on HCT-116 colon it was 1.48 µM; in the experiment with NCI-H23 lung, 1.57 µM; with SK-MEL-28 melanoma, 1.64 µM; with SR leukemia, 0.495 µM; in the experiment with SK-MEL-5 melanoma, 1.61 µM. For the same compound, the GI50 in the experiment with PC-3 prostate was 1.89 µM; in the experiment with MALME-3M melanoma it was 1.55 µM; in the experiment on SF-539 CNS, 1.53 µM; in the experiment on HS 578T breast it was 2.47 µM. Further, the TGI in the experiment with SK-MEL-2 melanoma is 2.98 µM; in the experiment with HCT-116 colon it was 2.8 µM; in the experiment on NCI-H23 lung it was 3.27 µM; in the experiment on SK-MEL-28 melanoma it was 2.99 µM; in the experiment with SR leukemia it was 4.58 µM; with SK-MEL-5 melanoma, 2.96 µM. The TGI is 3.94 µM with PC-3 prostate, 3.38 µM in the experiment with MALME-3M melanoma, 2.86 µM in the experiment on SF-539 CNS and over 23.1 µM with HS 578T breast.

For the compound `NC(=O)/C=C/c1c[nH]c2nccnc12`, the TGI is 3.95 µM in the experiment on SK-MEL-2 melanoma; over 37.5 µM with HCT-116 colon; 2.74 µM in the experiment on NCI-H23 lung; 4.26 µM with SK-MEL-28 melanoma; over 100 µM in the experiment on SR leukemia; 10.9 µM in the experiment on SK-MEL-5 melanoma. For the same compound, the TGI with PC-3 prostate was found to be 26.1 µM; with MALME-3M melanoma it was 2.18 µM; with SF-539 CNS, 6.15 µM; in the experiment with HS 578T breast, 4.6 µM.

For `COc1ccc(-c2cncn2-c2ccc(-c3nc4cc(OC)c(OC)c(OC)c4s3)cc2)cc1N`, the GI50 was 6.04 µM in the experiment with SK-MEL-2 melanoma; 3.78 µM with HCT-116 colon; 4.76 µM in the experiment with NCI-H23 lung; 13.7 µM in the experiment with SK-MEL-28 melanoma; 3.43 µM in the experiment on SR leukemia; 1.73 µM in the experiment with SK-MEL-5 melanoma. For the same compound, the GI50 with PC-3 prostate was 2.59 µM; with MALME-3M melanoma, 2.48 µM; with SF-539 CNS it was over 100 µM; in the experiment with HS 578T breast it was 28.3 µM. Moreover, the TGI in the experiment with SK-MEL-2 melanoma is over 100 µM; in the experiment with HCT-116 colon, over 100 µM; with NCI-H23 lung, over 100 µM; with SK-MEL-28 melanoma, over 100 µM; in the experiment on SR leukemia, over 100 µM; in the experiment with SK-MEL-5 melanoma, 4.4 µM. The TGI in the experiment on PC-3 prostate was over 100 µM; in the experiment with MALME-3M melanoma, 9.97 µM; in the experiment on SF-539 CNS it was over 100 µM; with HS 578T breast, over 100 µM.
